The structures appear in SMILES notation. Several values for one entry are separate records, joined by “and”; a condition that tells them apart may be missing. Identical values can stand only once.

The test system of this test is OVCAR-5 complex spheroids with HUVEC/MSC, viability, % test/control. Nature of the test: Anticancer human tumor OVCAR-5 cell line growth inhibition [AhR].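 On all read-outs here: spheroids exposed to compounds for 7 days.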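 On viability, T/C: 100% = DMSO vehicle control wells.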 The note with it: for viability, T/C: stronger effect = lower value. The method, boiled down: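 Complex tumor spheroids co-cultured with HUVEC and human MSC stroma; AhR antagonists tested in combination with standard-of-care and investigational agents. Top concentration at or near clinical Cmax (else 10 microM), half-log dilutions; growth expressed as percent test/control.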

[1] abbreviates: curve of first compound, second compound 0.1 µM.
The mark [2] stands for this setting: curve of first compound, second compound 0.316 µM.
[3] abbreviates: curve of first compound, second compound 1 µM.
[4] abbreviates: curve of first compound, second compound 3.16 µM.
Where [5] appears, read: curve of first compound, second compound 10 µM.
The mark [6] stands for this setting: second compound 0.1 µM, first compound 0.0316 µM.
The mark [7] stands for this setting: second compound 0.1 µM, first compound 0.1 µM.
[8] abbreviates: second compound 0.1 µM, first compound 0.316 µM.
Where [9] appears, read: second compound 0.1 µM, first compound 1 µM.
The mark [10] stands for this setting: second compound 0.1 µM, first compound 3.16 µM.
Setting [11] is: second compound 0.1 µM, first compound 10 µM.
Where [12] appears, read: second compound 0.316 µM, first compound 0.0316 µM.
Where [13] appears, read: second compound 0.316 µM, first compound 0.1 µM.
The mark [14] stands for this setting: second compound 0.316 µM, first compound 0.316 µM.
The mark [15] stands for this setting: second compound 0.316 µM, first compound 1 µM.
Where [16] appears, read: second compound 0.316 µM, first compound 3.16 µM.
Where [17] appears, read: second compound 0.316 µM, first compound 10 µM.
Setting [18] is: second compound 1 µM, first compound 0.0316 µM.
Setting [19] is: second compound 1 µM, first compound 0.1 µM.
The mark [20] stands for this setting: second compound 1 µM, first compound 0.316 µM.
The mark [21] stands for this setting: second compound 1 µM, first compound 1 µM.
[22] abbreviates: second compound 1 µM, first compound 3.16 µM.
The mark [23] stands for this setting: second compound 1 µM, first compound 10 µM.
The mark [24] stands for this setting: second compound 3.16 µM, first compound 0.0316 µM.
Where [25] appears, read: second compound 3.16 µM, first compound 0.1 µM.
Setting [26] is: second compound 3.16 µM, first compound 0.316 µM.
[27] abbreviates: second compound 3.16 µM, first compound 1 µM.
[28] abbreviates: second compound 3.16 µM, first compound 3.16 µM.
The mark [29] stands for this setting: second compound 3.16 µM, first compound 10 µM.
Setting [30] is: second compound 10 µM, first compound 0.0316 µM.
Setting [31] is: second compound 10 µM, first compound 0.1 µM.
The mark [32] stands for this setting: second compound 10 µM, first compound 0.316 µM.
The mark [33] stands for this setting: second compound 10 µM, first compound 1 µM.
[34] abbreviates: second compound 10 µM, first compound 3.16 µM.
Setting [35] is: second compound 10 µM, first compound 10 µM.

Broadly, the IC50 is the concentration that inhibits the measured activity by half. Usually viability, T/C stands for the ratio of treated to control. For the molecule `COc1cccc2c1C(=O)c1c(O)c3c(c(O)c1C2=O)CC(O)(C(=O)CO)CC3OC1CC(N)C(O)C(C)O1` (centres undefined) + CC(CO)NC(=O)c1cc(-c2ccc(Cl)cc2)nn(-c2cnn(C)c2)c1=O, the IC50 runs as follows: under setting [1], 267 nM; under setting [2], 285 nM; under setting [3], 347 nM; under setting [4], 351 nM; under setting [5], 326 nM. For the same molecule, the viability, T/C by setting is: under setting [6], 79.8%; under setting [7], 62.8%; under setting [8], 50%; under setting [9], 23.5%; under setting [10], 3.18%; under setting [11], 0.94%. Besides, the viability, T/C is 80% under setting [12]; 63.9% under setting [13]; 50.9% under setting [14]; 23.3% under setting [15]; 2.8% under setting [16]; 0.91% under setting [17]. The viability, T/C runs as follows: under setting [18], 82.5%; under setting [19], 71.5%; under setting [20], 53.1%; under setting [21], 23.8%; under setting [22], 2.66%; under setting [23], 0.86%. Besides, the viability, T/C runs as follows: under setting [24], 77%; under setting [25], 70.1%; under setting [26], 52.7%; under setting [27], 22.9%; under setting [28], 1.63%; under setting [29], 1.01%. The viability, T/C reads like this: under setting [30], 72.7%; under setting [31], 76.2%; under setting [32], 49.5%; under setting [33], 15%; under setting [34], 0.79%; under setting [35], 1.12%.

For `CC[C@@]1(O)C(=O)OCc2c1cc1n(c2=O)Cc2cc3c(CN(C)C)c(O)ccc3nc2-1` + CC(CO)NC(=O)c1cc(-c2ccc(Cl)cc2)nn(-c2cnn(C)c2)c1=O, the IC50 under setting [1] was more than 100 nM; the IC50 under setting [2] is more than 100 nM; the concentration for half-maximal inhibition (IC50) under setting [3] is more than 100 nM; the IC50 under setting [4] was more than 100 nM; the IC50 under setting [5] was more than 100 nM. Moreover, the viability, T/C is 112% (second compound 0.1 µM, first compound 0.000316 µM); 105% (second compound 0.1 µM, first compound 0.001 µM); 105% (second compound 0.1 µM, first compound 0.00316 µM); 94.9% (second compound 0.1 µM, first compound 0.01 µM); 61.9% under setting [6]; 50.9% under setting [7]. For the same molecule, the viability, T/C was 111% (second compound 0.316 µM, first compound 0.000316 µM); 110% (second compound 0.316 µM, first compound 0.001 µM); 106% (second compound 0.316 µM, first compound 0.00316 µM); 99.5% (second compound 0.316 µM, first compound 0.01 µM); 59% under setting [12]; 54.2% under setting [13]. In addition, the viability, T/C (second compound 1 µM, first compound 0.000316 µM) is 119%; the viability, T/C (second compound 1 µM, first compound 0.001 µM) was 119%; the viability, T/C (second compound 1 µM, first compound 0.00316 µM) was 112%; the viability, T/C (second compound 1 µM, first compound 0.01 µM) was 107%; the viability, T/C under setting [18] is 59%; the viability, T/C under setting [19] was 56.4%. Moreover, the viability, T/C by setting is: (second compound 3.16 µM, first compound 0.000316 µM) 100%; (second compound 3.16 µM, first compound 0.001 µM) 102%; (second compound 3.16 µM, first compound 0.00316 µM) 105%; (second compound 3.16 µM, first compound 0.01 µM) 93.9%; under setting [24], 52.9%; under setting [25], 55.4%. Further, the viability, T/C by setting is: (second compound 10 µM, first compound 0.000316 µM) 99.9%; (second compound 10 µM, first compound 0.001 µM) 103%; (second compound 10 µM, first compound 0.00316 µM) 100%; (second compound 10 µM, first compound 0.01 µM) 87.4%; under setting [30], 54.9%; under setting [31], 62.8%.

With `CC(C)c1c(-c2ccccc2)nc2c(C#N)c[nH]n2c1=O`, the viability, T/C is 103% and 100% and 101% (compound 0.0316 µM); 103% and 99.8% and 106% (compound 0.1 µM); 104% and 101% (2×) (compound 0.316 µM); 105% and 104% and 101% (compound 1 µM); 105% (2×) and 103% (compound 3.16 µM); 109% and 106% (2×) (compound 10 µM). Further, the IC50 (curve of compound) was more than 10000 nM.

Take `CC1(C)CCC(CN2CCN(c3ccc(C(=O)NS(=O)(=O)c4ccc(NCC5CCOCC5)c([N+](=O)[O-])c4)c(Oc4cnc5[nH]ccc5c4)c3)CC2)=C(c2ccc(Cl)cc2)C1`: the viability, T/C by setting is: (compound 0.0316 µM) 101% and 99.7% and 103%; (compound 0.1 µM) 99.9% and 101% and 107%; (compound 0.316 µM) 102% and 97.2% and 103%; (compound 1 µM) 103% (2×) and 98.7%; (compound 3.16 µM) 108% and 98.8% and 114%; (compound 10 µM) 92% and 56.4% and 56%. Besides, the IC50 (curve of compound) was more than 10000 nM.

For the molecule `COc1cc(Nc2ncc3c(n2)-c2ccc(Cl)cc2C(c2c(F)cccc2OC)=NC3)ccc1C(=O)O` + CC(CO)NC(=O)c1cc(-c2ccc(Cl)cc2)nn(-c2cnn(C)c2)c1=O, the IC50 was 1820 nM under setting [1]; 2430 nM under setting [2]; 3710 nM under setting [3]; 1760 nM under setting [4]; 8330 nM under setting [5]. For the same molecule, the viability, T/C is, setting by setting: under setting [6], 88.6%; under setting [7], 84.8%; under setting [8], 62.4%; under setting [9], 55.9%; under setting [10], 48.1%; under setting [11], 43.3%. Moreover, the viability, T/C is, setting by setting: under setting [12], 87.3%; under setting [13], 84.4%; under setting [14], 65.7%; under setting [15], 60%; under setting [16], 47.9%; under setting [17], 38.7%. Further, the viability, T/C is, setting by setting: under setting [18], 92.1%; under setting [19], 87%; under setting [20], 69.5%; under setting [21], 60.1%; under setting [22], 54%; under setting [23], 41.8%. Also, the viability, T/C is 79.4% under setting [24]; 81.8% under setting [25]; 65.4% under setting [26]; 55% under setting [27]; 46.7% under setting [28]; 42.4% under setting [29]. Besides, the viability, T/C was 75.5% under setting [30]; 72.8% under setting [31]; 62.9% under setting [32]; 59% under setting [33]; 51.8% under setting [34]; 50.4% under setting [35].

Values taken from PubChem BioAssay AID1919015 (Molecular Pharmacology Branch, DTP, NCI, 2023).
